Laboratory results as given in patent US5070210A, “Novel ketenimines as intermediates for insecticides” (ICI Americas Inc., priority 1990, dated 1991).

Columns and labels:
Format in all cases: in vivo
[1] = test system: Aster Leafhopper [Macrosteles fascifrens (Stal)]; test: Aster leafhopper insecticidal test; conditions: adults/nymphs, percent in solution; 48 hours
Summary of the method: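 Three ~10 cm oat seedlings per cup were dipped 2-3 seconds in 50-50 acetone-water compound solutions, dried, and caged with ten adult/nymph leafhoppers. Mortality was counted after 48 hours at concentrations from 0.05% downward. LC50, as percent compound in solution, came from dosage-mortality curves.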

[2] = test system: Housefly [Musca domestica]; test: Housefly insecticidal test; conditions: μg per 25 female flies; mortality after 48 hours
Summary of the method: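 Residual contact test: acetone dilution, 0.01% peanut oil spreader, solvent evaporated; 25 ♀ flies (1-2 d old) per cage; sugar-water plug; 48 h mortality read. LC50 in μg/25 female flies, from dose-mortality curves; top dose 100 μg/25 flies.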

[3] = test system: Tobacco Budworm [Heliothis virescens (Fabricius)] eggs; test: Tobacco budworm egg test; conditions: 2-day old eggs, percent in solution
Summary of the method: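 LC50 is given as percent compound in the dipping solution, fitted from dosage-mortality curves. Two-day-old eggs on paper towel were dipped in acetone solutions (top concentration 0.1%), kept at 78° F on rearing medium, and scored after control hatch and larval feeding.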

[4] = test system: Cabbage Looper [Trichoplusia ni (Hubner)]; test: Cabbage looper insecticidal test; conditions: second-instar larvae, percent in solution; 3-5 days
Summary of the method: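 LC50, as percent test compound in solution, derived from dosage-mortality curves; concentrations started at 0.1% and went lower. Five second-instar larvae per dish fed on acetone-water-dipped, dried squash cotyledons in a humid chamber. Deaths recorded 3-5 days post-infestation.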

[5] = test system: Maize weevil [Sitophilus Zeamais (Motschulsky)]; test: Maize weevil insecticidal test; conditions: adult weevils, percent in solution; 48 hours
Summary of the method: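 LC50, in percent of compound in solution, was derived from dosage-mortality curves after 48 h at about 25 °C. Ten adult weevils per container fed on four corn seeds briefly immersed in acetone:water (50:50) solutions of up to 0.01% and dried.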

SMILES	LC50, LH [1]	LC50, HF [2]	LC50, TBW, E (TBW-E) [3]	LC50, CL [4]	LC50, MW [5]
CC(C)C(=Nc1ccc(F)c([N+](=O)[O-])c1)OCc1cccc(Oc2ccccc2)c1 [Compound 293]	> 0.05%	19 µg	> 0.1%	0.0045%	> 0.01%
CC(C)(F)C(=Nc1ccc(F)c(Cl)c1)OCc1cccc(Oc2ccc(F)cc2F)c1 [Compound 315]	> 0.05%	> 100 µg	> 0.1%	0.002%	> 0.01%
CC(C)(F)C(=Nc1ccc(F)c(Cl)c1)OCc1cc(Oc2ccc(F)cc2)ccc1F [Compound 316]	> 0.05%	100 µg	> 0.1%	0.0015%	> 0.01%
CC(C)C(=Nc1cccc(C(C)(C)C)c1)OCc1cccc(Oc2ccc(F)cc2)c1 [Compound 350]	> 0.05%	> 100 µg	> 0.1%	0.0045%	> 0.01%
CC(C)C(=Nc1ccc(Br)cc1F)OCc1cccc(Oc2ccc(F)cc2)c1 [Compound 351]	> 0.05%	26 µg	> 0.1%	0.0007%	> 0.01%
CSc1ccc(N=C(OCc2ccc(F)c(Oc3ccccc3)c2)C(C)C)cc1 [Compound 353]	> 0.05%	< 100 µg	> 0.1%	> 0.1%	> 0.01%
Cc1ccc(N=C(OCc2ccc(F)c(Oc3ccccc3)c2)C(C)C)cc1F [Compound 354]	< 0.05%	< 100 µg	0.018%	> 0.1%	0.0068%
Cc1ccc(N=C(OCc2ccc(F)c(Oc3ccc(F)cc3)c2)C(C)C)cc1F [Compound 355]	< 0.05%	< 100 µg	> 0.1%	> 0.1%	> 0.01%
Cc1ccc(N=C(OCc2ccc(F)c(Oc3ccccc3)c2)C(C)C)cc1Cl [Compound 356]	< 0.05%	< 100 µg	0.025%	> 0.1%	> 0.01%
Cc1ccc(N=C(OCc2ccc(F)c(Oc3ccc(F)cc3)c2)C(C)C)cc1Cl [Compound 357]	< 0.05%	< 100 µg	> 0.1%	> 0.1%	0.01%
Cc1cc(N=C(OCc2ccc(F)c(Oc3ccccc3)c2)C(C)C)ccc1Br [Compound 358]	< 0.05%	< 100 µg	> 0.1%	> 0.1%	> 0.01%
Cc1cc(N=C(OCc2ccc(F)c(Oc3ccc(F)cc3)c2)C(C)C)ccc1Br [Compound 359]	0.05%	< 100 µg	0.023%	> 0.1%	> 0.01%
CCc1ccc(N=C(OCc2ccc(F)c(Oc3ccccc3)c2)C(C)C)cc1 [Compound 360]	< 0.05%	< 100 µg	> 0.1%	0.006%	> 0.01%
CCc1ccc(N=C(OCc2ccc(F)c(Oc3ccc(F)cc3)c2)C(C)C)cc1 [Compound 361]	< 0.05%	< 100 µg	0.04%	0.001%	> 0.01%
CSc1cccc(N=C(OCc2ccc(F)c(Oc3ccccc3)c2)C(C)C)c1 [Compound 362]	> 0.05%	< 100 µg	> 0.1%	> 0.1%	> 0.01%
COc1ccc(N=C(OCc2ccc(F)c(Oc3ccc(F)cc3)c2)C(C)C)cc1OC [Compound 363]	> 0.05%	< 100 µg	> 0.1%	> 0.1%	> 0.01%
CC(C)C(=Nc1ccc(Br)c(C(F)(F)F)c1)OCc1ccc(F)c(Oc2ccc(F)cc2)c1 [Compound 364]	< 0.05%	< 100 µg	0.025%	0.00045%	> 0.01%

SMILES	LC50, LH [1]	LC50, HF [2]	LC50, TBW, E (TBW-E) [3]	LC50, CL [4]	LC50, MW [5]
CC(C)C(=Nc1ccc(C(F)(F)F)cc1)OCc1cccc(Oc2ccc(Cl)cc2)c1 [Compound 365]	< 0.05%	> 100 µg	0.038%	0.00025%	> 0.01%
CC(C)C(=Nc1ccc2c(c1)OCO2)OCc1ccc(F)c(Oc2ccc(Cl)cc2)c1 [Compound 366]	0.05%	< 100 µg	0.012%	0.0007%	> 0.01%
CC(C)C(=Nc1ccc2c(c1)OCO2)OCc1cccc(Oc2ccc(C(C)(C)C)cc2)c1 [Compound 367]	> 0.05%	> 100 µg	> 0.1%	< 0.1%	> 0.01%
CC(C)C(=Nc1ccc(F)cc1)OCCc1cccc(Oc2ccccc2)c1 [Compound 456]	> 0.05%	> 100 µg	> 0.05%	0.017%	> 0.01%
CC(C)C(=Nc1ccc2c(c1)OCO2)OCc1cccc(Oc2ccc(Cl)cc2)n1 [Compound 466]	> 0.05%	13 µg	> 0.1%	0.0008%	0.01%
CC(C)C(=Nc1ccc(F)c(Cl)c1)OCc1ccc(OCc2ccccc2)cc1 [Compound 475]	> 0.05%	> 100 µg	> 0.1%	0.008%	> 0.01%
C=CCOc1cccc(COC(=Nc2ccc(F)c(Cl)c2)C(C)C)c1 [Compound 479]	> 0.05%	66 µg	> 0.1%	0.013%	> 0.01%
CC(C)C(=Nc1ccc(F)c(Cl)c1)OCc1cccc(OCc2ccc(F)cc2)c1 [Compound 490]	> 0.05%	> 100 µg	> 0.1%	0.0045%	> 0.01%
CC(C)C(=Nc1ccc(F)c(Cl)c1)OCc1cccc(Oc2ccc(Br)cc2)n1 [Compound 492]	> 0.05%	15 µg	0.015%	0.00028%	> 0.01%
CC(C)C(=Nc1ccc(F)c(Cl)c1)OCc1cccc(Nc2ccc(F)cc2)c1 [Compound 512]	> 0.05%	35 µg	> 0.1%	0.003%	> 0.01%
CC(C)C(=Nc1cccc(C(F)(F)F)c1)OCc1cccc(Nc2ccc(F)cc2)c1 [Compound 513]	> 0.05%	81 µg	> 0.1%	0.007%	> 0.01%
CC(C)C(=Nc1ccc(Cl)c(Cl)c1)OCc1cccc(Nc2ccc(F)cc2)c1 [Compound 514]	> 0.05%	> 100 µg	> 0.1%	0.008%	> 0.01%
CC(C)C(=Nc1ccc2c(c1)OCO2)OCc1cc(Oc2ccc(F)cc2)ccn1 [Compound 515]	> 0.05%	28 µg	> 0.1%	0.0015%	> 0.01%
CC(C)C(=Nc1ccc(F)c(Cl)c1)OCc1cc(Oc2ccc(Cl)cc2)ccn1 [Compound 516]	> 0.05%	> 100 µg	> 0.1%	0.008%	> 0.01%
CC(C)C(=Nc1cccc(C(F)(F)F)c1)OCc1ccnc(Oc2ccc(Cl)cc2)c1 [Compound 517]	> 0.05%	80 µg	0.04%	0.0008%	> 0.01%
CC(C)C(=Nc1cccc(C(F)(F)F)c1)OCc1cccc(Oc2ccc(Cl)cn2)c1 [Compound 518]	> 0.05%	> 100 µg	> 0.1%	0.00075%	> 0.01%
C#CC(OC(=Nc1cccc(C(F)(F)F)c1)C(C)C)c1cccc(Oc2ccccc2)c1 (centres unmarked) [Compound 519]	> 0.05%	60 µg	> 0.1%	0.0037%	> 0.01%
